Measured values as given in US10105357B2, “Indication of antibiotic drugs for preparation of cancer inhibition pharmaceutical composition” (LAUNX BIOMEDICAL CO., LTD., priority 2014, dated 2018).
Where two headings read alike, the source gives them in different places. Positions of bridges follow the written chain, without caps; N, C: chain ends. Non-standard residues stand in square brackets, D forms with d. Residues, ends and D or L forms follow the SMILES beside them. *: point of attachment. Ileψ(thiazoline)Cys = CC[C@H](C)[C@H](N)C1=N[C@H](C(=O)*)CS1; dOrn = NCCC[C@@H](N)C(=O)O

Legend:
Type in all cases: cell-based, human
[1] = test system: MKN-45 (Gastric Adenocarcinoma); assay: Cell viability analysis, gastric cancer MKN-45; settings: Homo sapiens, MKN-45, 72 h
cancer cell lines = assay: Cell viability analysis (WST-1) on cancer cell lines; settings: drug 10 μM, 72 hours, WST-1; Table 3
[2] = test system: TSGH-8301 (Urinary Bladder Carcinoma); assay: Cell viability analysis, bladder cancer TSGH-8301; settings: Homo sapiens, 72 h
[3] = test system: LoVo (Colorectal Adenocarcinoma); assay: Cell viability analysis, colon cancer LoVo; settings: Homo sapiens, LoVo, 72 h
[4] = test system: HeLa (Cervix Adenocarcinoma); assay: Cell viability analysis, cervical cancer HeLa; settings: Homo sapiens, HeLa, 72 h
[5] = test system: A375 (Amelanotic Melanoma); assay: Cell viability analysis, skin cancer A375; settings: Homo sapiens, A-375, 72 h
[6] = test system: HI650 (Lung Adenocarcinoma); assay: Cell viability analysis, lung cancer HI650; settings: Homo sapiens, NCI-H1650, 72 h
[7] = test system: HepG2 (Hepatocellular Carcinoma); assay: Cell viability analysis, hepatic cancer HepG2; settings: Homo sapiens, HepG2, 72 h
[8] = test system: MCF7 (Mammary Gland, Adenocarcinoma); assay: Cell viability analysis, breast cancer MCF7; settings: Homo sapiens, MCF7, 72 h
[9] = test system: AGS (Gastric Adenocarcinoma); assay: Cell viability analysis, gastric cancer AGS; settings: Homo sapiens, 72 h
[10] = test system: PC3 (p53−) (Prostate Adenocarcinoma); assay: Cell viability analysis, prostate cancer PC3; settings: Homo sapiens, 72 h
[11] = test system: A549 (Lung Adenocarcinoma); assay: Cell viability analysis, lung cancer A549; settings: Homo sapiens, A549, 72 h
[12] = test system: HL-60 (Acute Promyelocytic Leukemia); assay: Cell viability analysis, leukemia HL-60; settings: Homo sapiens, HL-60, 72 h
[13] = read-out: cell viability (survival rate), MKN-45, drug 10 μM, 72 hours, WST-1, OD450 nm
[14] = read-out: cell viability (survival rate), TSGH, drug 10 μM, 72 hours, WST-1, OD450 nm
[15] = read-out: cell viability (survival rate), LoVo, drug 10 μM, 72 hours, WST-1, OD450 nm
[16] = read-out: cell viability (survival rate), HeLa, drug 10 μM, 72 hours, WST-1, OD450 nm
[17] = read-out: cell viability (survival rate), A375, drug 10 μM, 72 hours, WST-1, OD450 nm
[18] = read-out: cell viability (survival rate), H1650, drug 10 μM, 72 hours, WST-1, OD450 nm
[19] = read-out: cell viability (survival rate), HepG2, drug 10 μM, 72 hours, WST-1, OD450 nm
[20] = read-out: cell viability (survival rate), MCF7, drug 10 μM, 72 hours, WST-1, OD450 nm
[21] = read-out: cell viability (survival rate), AGS, drug 10 μM, 72 hours, WST-1, OD450 nm
[22] = read-out: cell viability (survival rate), PC3, drug 10 μM, 72 hours, WST-1, OD450 nm
[23] = read-out: cell viability (survival rate), A549, drug 10 μM, 72 hours, WST-1, OD450 nm
[24] = read-out: cell viability (survival rate), HL-60, drug 10 μM, 72 hours, WST-1, OD450 nm
[25] = drug 10 μM, 72 hours, WST-1, OD450 nm, read-out: cell viability (survival rate), MKN-45
[26] = drug 10 μM, 72 hours, WST-1, OD450 nm, read-out: cell viability (survival rate), TSGH
[27] = drug 10 μM, 72 hours, WST-1, OD450 nm, read-out: cell viability (survival rate), HeLa
[28] = drug 10 μM, 72 hours, WST-1, OD450 nm, read-out: cell viability (survival rate), A375
[29] = drug 10 μM, 72 hours, WST-1, OD450 nm, read-out: cell viability (survival rate), H1650
[30] = drug 10 μM, 72 hours, WST-1, OD450 nm, read-out: cell viability (survival rate), HepG2
[31] = drug 10 μM, 72 hours, WST-1, OD450 nm, read-out: cell viability (survival rate), MCF7
[32] = drug 10 μM, 72 hours, WST-1, OD450 nm, read-out: cell viability (survival rate), AGS
[33] = drug 10 μM, 72 hours, WST-1, OD450 nm, read-out: cell viability (survival rate), PC3
[34] = drug 10 μM, 72 hours, WST-1, OD450 nm, read-out: cell viability (survival rate), A549
[35] = drug 10 μM, 72 hours, WST-1, OD450 nm, read-out: cell viability (survival rate), HL-60

Row | Compound | viability at 10 µM [1, 13] [%] | inhibition effect on different cancer cell lines (cancer cell lines) | viability at 10 µM [2, 14] [%] | viability at 10 µM [3, 15] [%] | viability at 10 µM [4, 16] [%] | viability at 10 µM [5, 17] [%] | viability at 10 µM [6, 18] [%] | viability at 10 µM [7, 19] [%] | viability at 10 µM [8, 20] [%] | viability at 10 µM [9, 21] [%] | viability at 10 µM [10, 22] [%] | viability at 10 µM [11, 23] [%] | viability at 10 µM [12, 24] [%] | other results
1 | CC[C@H](C)[C@H](N)C1=N[C@H](C(=O)N[C@@H](CC(C)C)C(=O)N[C@H](CCC(=O)O)C(=O)N[C@H](C(=O)N[C@H]2CCCCNC(=O)[C@H](CC(N)=O)NC(=O)[C@@H](CC(=O)O)NC(=O)[C@H](Cc3cnc[nH]3)NC(=O)[C@@H](Cc3ccccc3)NC(=O)[C@H]([C@@H](C)CC)NC(=O)[C@@H](CCCN)NC2=O)[C@@H](C)CC)CS1 [Bacitracin] ({Ileψ(thiazoline)Cys}-L[dE]IK[dOrn]I[dF]H[dD]N; lactam 4-C) | 46.9 | significant inhibition effect | 68.3 | 69.9 | 68.4 | 54.7 | 65.4 | 86.4 | 41.4 | 61.4 | 70 | 51.4 | 85.9 | –
2 | CO[C@H]1/C=C/O[C@@]2(C)Oc3c(C)c(O)c4c(c3C2=O)C2=NC3(CCN(CC(C)C)CC3)NC2=C(NC(=O)/C(C)=C\C=C\[C@H](C)[C@H](O)[C@@H](C)[C@@H](O)[C@@H](C)[C@H](OC(C)=O)[C@@H]1C)C4=O [Rifabutin (Mycobutin), Rifabutin] | 62.4 | significant inhibition effect | 82.5 | 104 | 52.8 | 84 | 88.2 | 148 | 48.8 | 115 | 72.6 | 53.1 | 100 | –
3 | Cc1cccc(C)c1OCC(=O)N[C@@H](Cc1ccccc1)[C@@H](O)C[C@H](Cc1ccccc1)NC(=O)[C@H](C(C)C)N1CCCNC1=O [Lopinavir (ABT-378), Lopinavir] | 74.2 | significant inhibition effect | 82.2 | 85.1 | 116 | 83.1 | 53.1 | 93.1 | 77.9 | 55.4 | 68 | 63.8 | 92.4 | –
4 | C[C@@H]1CN(c2c(F)c(N)c3c(=O)c(C(=O)O)cn(C4CC4)c3c2F)C[C@H](C)N1 [Sparfloxacin] | 57.5 | significant inhibition effect | 68.1 | 97 | 88.3 | 82.6 | 88.5 | 97.6 | 56.3 | 79.9 | 50.1 | 86.5 | 99.3 | –
5 | Cc1c(OCC(F)(F)F)ccnc1C[S+]([O-])c1nc2ccccc2[nH]1 (centres unmarked) [Lansoprazole] | – | significant inhibition effect | – | 96.1 | – | – | – | – | – | – | – | – | – | viability at 10 µM [1, 25]: 74.5%; viability at 10 µM [2, 26]: 109%; viability at 10 µM [4, 27]: 53.6%; viability at 10 µM [5, 28]: 60.6%; viability at 10 µM [6, 29]: 45.5%; viability at 10 µM [7, 30]: 72.3%; viability at 10 µM [8, 31]: 141%; viability at 10 µM [9, 32]: 71.5%; viability at 10 µM [10, 33]: 94.2%; viability at 10 µM [11, 34]: 84.5%; viability at 10 µM [12, 35]: 78.6%
6 | CCS(=O)(=O)CCn1c([N+](=O)[O-])cnc1C [tinidazole] | 100 | significant inhibition effect | 112 | 78.5 | 97.8 | 60.6 | 91.1 | 95.5 | 88 | 104 | 85.6 | 79.5 | 89 | –
7 | Nc1[nH]c(=O)ncc1F [Flucytosine (Ancobon), Flucytosine] | 72.9 | significant inhibition effect | 93.9 | 108 | 80.9 | 102 | 92.1 | 93.2 | 75.3 | 70.7 | 108 | 91.4 | 102 | –
8 | COc1ccc2c(c1)c(CC(=O)OCC(=O)O)c(C)n2C(=O)c1ccc(Cl)cc1 [Acemetacin (Emflex), Acemetacin] | 103 | significant inhibition effect | 99.4 | 94.7 | 70.9 | 68.4 | 78.2 | 110 | 87.3 | 69 | 90.5 | 88.1 | 120 | –
9 | Clc1ccc(CCC(Cn2ccnc2)Sc2c(Cl)cccc2Cl)cc1 (centres unmarked) [Butoconazole nitrate] | 48.7 | significant inhibition effect | 86 | 112 | 131 | 102 | 78.2 | 114 | 72.9 | 78.7 | 57.1 | 89.6 | 41.3 | –
10 | NC(=O)C(c1ccccc1)(c1ccccc1)[C@@H]1CCN(CCc2ccc3c(c2)CCO3)C1 [Darifenacin HBr] | – | significant inhibition effect | – | – | – | – | – | – | – | – | – | – | – | viability at 10 µM [1, 25]: 82.4%; viability at 10 µM [2, 26]: 99.8%; viability at 10 µM ([3]; drug 10 μM, 72 hours, WST-1, OD450 nm, read-out: cell viability (survival rate), LoVo): 93.5%; viability at 10 µM [4, 27]: 87.7%; viability at 10 µM [5, 28]: 60.5%; viability at 10 µM [6, 29]: 126%; viability at 10 µM [7, 30]: 81.6%; viability at 10 µM [8, 31]: 59.7%; viability at 10 µM [9, 32]: 80.4%; viability at 10 µM [10, 33]: 86.1%; viability at 10 µM [11, 34]: 100%; viability at 10 µM [12, 35]: 78.2%
11 | CC(=O)N1CCN(c2ccc(OCC3COC(Cn4ccnc4)(c4ccc(Cl)cc4Cl)O3)cc2)CC1 (centres unmarked) [Ketoconazole] | 77 | significant inhibition effect | 107 | 90.3 | 84.3 | 49.2 | 46.1 | 88.7 | 118 | 65.7 | 80.1 | 75.7 | 88.3 | –
